The values below come from patent publication US20070249590A1, “Substituted indolo[2,3-a]pyrrolo[3,4-c]carbazole compounds useful in treating kinase disorders” (priority 2005, published 2007).

Structures are written as SMILES.

The target in the assay is T1, JAK3 (JH1 and JH2 domain) (Homo sapiens, UniProt P52333).
T1 sequence (P52333 521-1111 limits assumed): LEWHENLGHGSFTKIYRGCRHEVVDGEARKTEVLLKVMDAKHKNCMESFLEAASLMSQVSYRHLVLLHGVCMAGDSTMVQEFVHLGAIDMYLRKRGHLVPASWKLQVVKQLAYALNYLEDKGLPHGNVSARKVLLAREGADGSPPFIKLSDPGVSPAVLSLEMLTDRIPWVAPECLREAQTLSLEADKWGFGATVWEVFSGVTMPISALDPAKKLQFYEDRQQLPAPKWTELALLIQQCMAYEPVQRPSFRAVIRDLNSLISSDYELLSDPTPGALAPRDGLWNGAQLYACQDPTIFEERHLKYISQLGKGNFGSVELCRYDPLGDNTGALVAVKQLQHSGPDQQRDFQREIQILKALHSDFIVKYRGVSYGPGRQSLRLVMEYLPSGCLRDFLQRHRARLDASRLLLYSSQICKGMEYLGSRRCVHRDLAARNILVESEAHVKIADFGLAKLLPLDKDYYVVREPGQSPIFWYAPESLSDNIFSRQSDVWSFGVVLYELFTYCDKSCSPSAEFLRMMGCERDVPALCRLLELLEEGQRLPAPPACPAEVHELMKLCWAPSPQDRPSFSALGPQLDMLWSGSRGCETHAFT
Nature of the assay: JAK3 Kinase Assay (ELISA of peptide substrate phosphorylation). The assay is classed as biochemical. The following applies: purified JAK3 enzyme, 10 μM ATP, biotinylated peptide substrate, 1 hour at room temperature. The method in brief:
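Sf21-baculovirus-expressed JAK3 (JH1+JH2), glutathione-bead purified, with biotinylated peptide substrate (in buffer containing 10 μM ATP) in HEPES pH 7.5/MgCl2/DTT, 1 h RT. Product was captured on Neutravidin, detected with HRP anti-phosphotyrosine (PY99)/TMB, OD 450/650 nm. Triplicate 16-point half-log series from 200 μM gave IC50; otherwise % inhibition at 1 μM.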
On the technique in general: An ELISA detects its analyte on a solid surface through an enzyme-linked reagent.
For orientation: IC50 means the point on the concentration scale where inhibition reaches its midpoint. With `O=C1NCc2c1c1c3cc(O)ccc3n3c1c1c2c2ccccc2n1CC(O)C(O)C3` (centres unmarked) [Cpd 189, 3-hydroxy-12,13-(2,3-dihydroxy-butan-1,4-yl)-6,7,12,13-tetrahydro-5-oxo-5H-indolo[2,3-a]pyrrolo[3,4-c]carbazole], the 50% inhibitory concentration (IC50) turned out to be 0.003 µM. Then `O=C1NC(=O)c2c1c1c3ccccc3n3c1c1c2c2ccccc2n1CC(OC(=O)N1CCN(CCc2ccccc2)CC1)C(O)C3` (centres unmarked) [Cpd 110, 12,13-(2-{[4-(2-phenyl-ethyl)piperazin-1-yl]carbamoyloxy}-3-hydroxy-butan-1,4-yl)-12,13-dihydro-5,7-dioxo-6H-indolo[2,3-a]pyrrolo[3,4-c]carbazole], with 0.916 µM; and `O=C1NC(=O)c2c1c1c3ccccc3n3c1c1c2c2ccccc2n1CC(OC(=O)N1CCCNCC1)CC3` (centres unmarked) [Cpd 60, 12,13-{2-[(hexahydro-1H-1,4-diazepin-1-yl)carbonyloxy]-butan-1,4-yl}-12,13-dihydro-5,7-dioxo-6H-indolo[2,3-a]pyrrolo[3,4-c]carbazole], with 0.156 µM. The value for `O=C1NCc2c1c1c3ccccc3n3c1c1c2c2ccccc2n1CCC(O)CC3` (centres unmarked) [Cpd 28, 12,13-(3-hydroxy-pentan-1,5-yl)-6,7,12,13-tetrahydro-5-oxo-5H-indolo[2,3-a]pyrrolo[3,4-c]carbazole] was 0.058 µM; that for `O=C1NCc2c1c1c3ccccc3n3c1c1c2c2ccccc2n1CC(COC(=O)N1CCN(CCOCCO)CC1)C3` (centres unmarked) [Cpd 166, 12,13-[2-({4-[2-(2-hydroxy-ethoxy)ethyl]piperazin-1-yl}carbonyloxymethyl)-propan-1,3-yl]-6,7,12,13-tetrahydro-5-oxo-5H-indolo[2,3-a]pyrrolo[3,4-c]carbazole] was 0.578 µM; that for `CN(C)c1ccc(CNC(=O)OC2Cn3c4ccccc4c4c5c(c6c7ccccc7n(c6c43)CC2O)C(=O)NC5=O)cc1` (centres unmarked) [Cpd 93, 12,13-{2-[(4-dimethylamino-benzyl)carbamoyloxy]-3-hydroxy-butan-1,4-yl}-12,13-dihydro-5,7-dioxo-6H-indolo[2,3-a]pyrrolo[3,4-c]carbazole] was 0.065 µM.

As to `O=C1NCc2c1c1c3ccccc3n3c1c1c2c2ccccc2n1CC(COC(=O)N1CC[C@@H](O)C1)C3` (stereo partly drawn) [Cpd 168, 12,13-(2-{[(3R)-3-hydroxy-pyrrolidin-1-yl]carbonyloxymethyl}-propan-1,3-yl)-6,7,12,13-tetrahydro-5-oxo-5H-indolo[2,3-a]pyrrolo[3,4-c]carbazole], the IC50 was 0.346 µM. The value for `CN(C(=O)OC1CCn2c3ccccc3c3c4c(c5c6ccccc6n(c5c32)C1)C(=O)NC4=O)C1CCN(Cc2ccccc2)C1` (centres unmarked) [Cpd 61, 12,13-{2-[N-methyl-N-(1-benzyl-pyrrolidin-3-yl)carbamoyloxy]-butan-1,4-yl}-12,13-dihydro-5,7-dioxo-6H-indolo[2,3-a]pyrrolo[3,4-c]carbazole] was 0.543 µM. Then `O=C1NCc2c1c1c3ccccc3n3c1c1c2c2ccccc2n1CC(O)(COC(=O)N1CCCNCC1)C3` (centres unmarked) [Cpd 146, 12,13-{2-hydroxy-2-[(hexahydro-1H-1,4-diazepin-1-yl)carbonyloxymethyl]-propan-1,3-yl}-6,7,12,13-tetrahydro-5-oxo-5H-indolo[2,3-a]pyrrolo[3,4-c]carbazole], with 0.026 µM. For `O=C(NCC1CCCCC1)OC1Cn2c3ccccc3c3c4c(c5c6ccccc6n(c5c32)CC1O)C(=O)NC4=O` (centres unmarked) [Cpd 81, 12,13-{2-[(cyclohexyl-methyl)carbamoyloxy]-3-hydroxy-butan-1,4-yl}-12,13-dihydro-5,7-dioxo-6H-indolo[2,3-a]pyrrolo[3,4-c]carbazole], the IC50 was determined as 0.434 µM. Then `O=C(NCCCN1CCCC1=O)OC1Cn2c3ccccc3c3c4c(c5c6ccccc6n(c5c32)CC1O)C(=O)NC4=O` (centres unmarked) [Cpd 79, 12,13-(2-{[3-(2-oxo-pyrrolidin-1-yl)prop-1-yl]carbamoyloxy}-3-hydroxy-butan-1,4-yl)-12,13-dihydro-5,7-dioxo-6H-indolo[2,3-a]pyrrolo[3,4-c]carbazole], with 0.048 µM.
